# From patent US9833497B2, “Human originated EGF domain proteins and use of the same” (CHENGDU SOURCEBIO LIMITED-LIABILITY COMPANY, priority 2013, dated 2017)
# Experiments:
# Assay type in all cases: cell-based
# E. coli DH5α = experiment: Antibacterial activity: MIC and growth curve against E. coli DH5α in 96-well plate; settings: minimal inhibitory concentration against E. coli DH5α; 96-well plate, 5×10^5 CFU/mL, 37° C., judged after 8 h
# Method in brief: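 Log-phase bacteria (OD600 ~0.5) resuspended in LB at 5×10^5 CFU/mL, exposed to recombinant protein at 50, 25, 12.5 μg/mL final in triplicate, 37 °C shaking at 175 rpm. OD600 read every 30 min; MIC is lowest concentration showing no growth.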
# E. coli BL21 = experiment: MIC against Gram-negative bacteria: E. coli BL21; settings: 5×10^5 CFU/mL
# Method in brief: (§1)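 Purified recombinant human EGF domain proteins are tested by broth dilution in LB against a 5×10^5 CFU/mL inoculum, with two-fold serial dilutions run in triplicate. Plates are incubated at 37° C with shaking, and the MIC is read as the lowest protein concentration without growth.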
# Pseudomonas aeruginosa = experiment: MIC against Gram-negative bacteria: Pseudomonas aeruginosa; settings: 5×10^5 CFU/mL
# Method in brief: as §1
# Klebsiella pneumonia = experiment: MIC against Gram-negative bacteria: Klebsiella pneumonia; settings: 5×10^5 CFU/mL
# Method in brief: as §1
# Enterobacter cloacae = experiment: MIC against Gram-negative bacteria: Enterobacter cloacae; settings: 5×10^5 CFU/mL
# Method in brief: as §1
# Aeromonas hydrophila = experiment: MIC against Gram-negative bacteria: Aeromonas hydrophila; settings: 5×10^5 CFU/mL
# Method in brief: as §1
# Citrobacter diversus = experiment: MIC against Gram-negative bacteria: Citrobacter diversus; settings: 5×10^5 CFU/mL
# Method in brief: as §1
# Moraxella catarrhalis = experiment: MIC against Gram-negative bacteria: Moraxella catarrhalis; settings: 5×10^5 CFU/mL
# Method in brief: as §1
# Proteus mirabilis = experiment: MIC against Gram-negative bacteria: Proteus mirabilis; settings: 5×10^5 CFU/mL
# Method in brief: as §1
# Proteus vulgaris = experiment: MIC against Gram-negative bacteria: Proteus vulgaris; settings: 5×10^5 CFU/mL
# Method in brief: as §1
# Serratia marcescens = experiment: MIC against Gram-negative bacteria: Serratia marcescens; settings: 5×10^5 CFU/mL
# Method in brief: as §1
# [1] = E. coli BL21, 96-well plate, 37° C., 10 h
# [2] = Pseudomonas aeruginosa, 96-well plate, 37° C., 10 h
# [3] = Klebsiella pneumonia, 96-well plate, 37° C., 10 h
# [4] = Enterobacter cloacae, 96-well plate, 37° C., 10 h
# [5] = Aeromonas hydrophila, 96-well plate, 37° C., 10 h
# [6] = Citrobacter diversus, 96-well plate, 37° C., 10 h
# [7] = Moraxella catarrhalis, 96-well plate, 37° C., 10 h
# [8] = Proteus mirabilis, 96-well plate, 37° C., 10 h
# [9] = Proteus vulgaris, 96-well plate, 37° C., 10 h
# [10] = Serratia marcescens, 96-well plate, 37° C., 10 h
# [11] = 10 h cultivation at 37° C., two-fold serial dilution
# [12] = E. coli BL21, 10 h cultivation at 37° C.
# [13] = P. aeruginosa, 10 h cultivation at 37° C.
# [14] = K. pneumonia, 10 h cultivation at 37° C.
# [15] = E. cloacae, 10 h cultivation at 37° C.
# [16] = A. hydrophila, 10 h cultivation at 37° C.
# [17] = C. diversus, 10 h cultivation at 37° C.
# [18] = M. catarrhalis, 10 h cultivation at 37° C.
# [19] = P. mirabilis, 10 h cultivation at 37° C.
# [20] = P. vulgaris, 10 h cultivation at 37° C.
# [21] = S. marcescens, 10 h cultivation at 37° C.
substance,measurement,setting,value
PRT38 (VRDLCGQRTTDACEQLCDPETGECSCHEGYAPDPVHRHLCV; listed as Homo sapiens),MIC,E. coli DH5α,50 µg/mL
same,MIC (μg/mL) E. coli BL21,E. coli BL21; [1],25 µg/mL
same,MIC (μg/mL) P. aeruginosa,Pseudomonas aeruginosa; [2],12.5 µg/mL
same,MIC (μg/mL) K. pneumonia,Klebsiella pneumonia; [3],50 µg/mL
same,MIC (μg/mL) E. cloacae,Enterobacter cloacae; [4],25 µg/mL
same,MIC (μg/mL) A. hydrophila,Aeromonas hydrophila; [5],100 µg/mL
same,MIC (μg/mL) C. diversus,Citrobacter diversus; [6],50 µg/mL
same,MIC (μg/mL) M. catarrhalis,Moraxella catarrhalis; [7],12.5 µg/mL
same,MIC (μg/mL) P. mirabilis,Proteus mirabilis; [8],25 µg/mL
same,MIC (μg/mL) P. vulgaris,Proteus vulgaris; [9],50 µg/mL
same,MIC (μg/mL) S. marcescens,Serratia marcescens; [10],50 µg/mL
PRT1094 (GDNSCKSNPCHNGGVCHSRWDDFSCSCPALTSGKACE; listed as Homo sapiens),MIC,E. coli DH5α,25 µg/mL
same,MIC E. coli BL21,E. coli BL21; [11],50 µg/mL
same,MIC P. aeruginosa,Pseudomonas aeruginosa; [11],25 µg/mL
same,MIC K. pneumonia,Klebsiella pneumonia; [11],12.5 µg/mL
same,MIC E. cloacae,Enterobacter cloacae; [11],25 µg/mL
same,MIC A. hydrophila,Aeromonas hydrophila; [11],50 µg/mL
same,MIC C. diversus,Citrobacter diversus; [11],12.5 µg/mL
same,MIC M. catarrhalis,Moraxella catarrhalis; [11],50 µg/mL
same,MIC P. mirabilis,Proteus mirabilis; [11],12.5 µg/mL
same,MIC P. vulgaris,Proteus vulgaris; [11],50 µg/mL
same,MIC S. marcescens,Serratia marcescens; [11],12.5 µg/mL
PRT226 (DIDECESGAHQCSEAQTCVNFHGGYRCVDTNRCVEPYIQVSENRCL; listed as Homo sapiens),MIC,E. coli DH5α,50 µg/mL
same,MIC (μg/mL) E. coli BL21,E. coli BL21; [12],25 µg/mL
same,MIC (μg/mL) P. aeruginosa,Pseudomonas aeruginosa; [13],12.5 µg/mL
same,MIC (μg/mL) K. pneumonia,Klebsiella pneumonia; [14],25 µg/mL
same,MIC (μg/mL) E. cloacae,Enterobacter cloacae; [15],50 µg/mL
same,MIC (μg/mL) A. hydrophila,Aeromonas hydrophila; [16],12.5 µg/mL
same,MIC (μg/mL) C. diversus,Citrobacter diversus; [17],50 µg/mL
same,MIC (μg/mL) M. catarrhalis,Moraxella catarrhalis; [18],12.5 µg/mL
same,MIC (μg/mL) P. mirabilis,Proteus mirabilis; [19],12.5 µg/mL
same,MIC (μg/mL) P. vulgaris,Proteus vulgaris; [20],12.5 µg/mL
same,MIC (μg/mL) S. marcescens,Serratia marcescens; [21],12.5 µg/mL
PRT502 (CECHGHAAECNVHGVCIACAHNTTGVHCEQCLPGFYGEPSRGTPGDCQP; listed as Homo sapiens),MIC,E. coli DH5α,25 µg/mL
same,MIC against E. coli BL21,"E. coli BL21; 96-well plate, 37° C., 10 h",12.5 µg/mL
same,MIC against P. aeruginosa,"Pseudomonas aeruginosa; 96-well plate, 37° C., 10 h",12.5 µg/mL
same,MIC against K. pneumonia,"Klebsiella pneumonia; 96-well plate, 37° C., 10 h",12.5 µg/mL
same,MIC against E. cloacae,"Enterobacter cloacae; 96-well plate, 37° C., 10 h",12.5 µg/mL
same,MIC against A. hydrophila,"Aeromonas hydrophila; 96-well plate, 37° C., 10 h",12.5 µg/mL
same,MIC against C. diversus,"Citrobacter diversus; 96-well plate, 37° C., 10 h",12.5 µg/mL
same,MIC against M. catarrhalis,"Moraxella catarrhalis; 96-well plate, 37° C., 10 h",12.5 µg/mL
same,MIC against P. mirabilis,"Proteus mirabilis; 96-well plate, 37° C., 10 h",12.5 µg/mL
same,MIC against P. vulgaris,"Proteus vulgaris; 96-well plate, 37° C., 10 h",50 µg/mL
same,MIC against S. marcescens,"Serratia marcescens; 96-well plate, 37° C., 10 h",25 µg/mL
PRT796 (SGDFCIPLCTEECVHGRCVSPDTCHCEPGWGGPDCS; listed as Homo sapiens),MIC,E. coli DH5α,25 µg/mL
same,MIC (μg/mL) E. coli BL21,E. coli BL21; [12],50 µg/mL
same,MIC (μg/mL) P. aeruginosa,Pseudomonas aeruginosa; [13],12.5 µg/mL
same,MIC (μg/mL) K. pneumonia,Klebsiella pneumonia; [14],50 µg/mL
same,MIC (μg/mL) E. cloacae,Enterobacter cloacae; [15],50 µg/mL
same,MIC (μg/mL) A. hydrophila,Aeromonas hydrophila; [16],50 µg/mL
same,MIC (μg/mL) C. diversus,Citrobacter diversus; [17],5 µg/mL
same,MIC (μg/mL) M. catarrhalis,Moraxella catarrhalis; [18],50 µg/mL
same,MIC (μg/mL) P. mirabilis,Proteus mirabilis; [19],12.5 µg/mL
same,MIC (μg/mL) P. vulgaris,Proteus vulgaris; [20],50 µg/mL
same,MIC (μg/mL) S. marcescens,Serratia marcescens; [21],50 µg/mL
PRT1314 (ARNPCTDGHRGGCSEHANCLSTGLNTRRCECHAGYVGDGLQCL; listed as Homo sapiens),MIC,E. coli DH5α,12.5 µg/mL
same,MIC against E. coli BL21,E. coli BL21; [1],50 µg/mL
same,MIC against P. aeruginosa,Pseudomonas aeruginosa; [2],12.5 µg/mL
same,MIC against K. pneumonia,Klebsiella pneumonia; [3],50 µg/mL
same,MIC against E. cloacae,Enterobacter cloacae; [4],12.5 µg/mL
same,MIC against A. hydrophila,Aeromonas hydrophila; [5],50 µg/mL
same,MIC against C. diversus,Citrobacter diversus; [6],12.5 µg/mL
same,MIC against M. catarrhalis,Moraxella catarrhalis; [7],12.5 µg/mL
same,MIC against P. mirabilis,Proteus mirabilis; [8],12.5 µg/mL
same,MIC against P. vulgaris,Proteus vulgaris; [9],12.5 µg/mL
same,MIC against S. marcescens,Serratia marcescens; [10],12.5 µg/mL
PRT790 (HGPQCEQRCPCQNGGVCHHVTGECSCPSGWMGTVCG; listed as Homo sapiens),MIC,E. coli DH5α,25 µg/mL
same,MIC (μg/mL) E. coli BL21,E. coli BL21; [12],50 µg/mL
same,MIC (μg/mL) P. aeruginosa,Pseudomonas aeruginosa; [13],25 µg/mL
same,MIC (μg/mL) K. pneumonia,Klebsiella pneumonia; [14],25 µg/mL
same,MIC (μg/mL) E. cloacae,Enterobacter cloacae; [15],12.5 µg/mL
same,MIC (μg/mL) A. hydrophila,Aeromonas hydrophila; [16],25 µg/mL
same,MIC (μg/mL) C. diversus,Citrobacter diversus; [17],50 µg/mL
same,MIC (μg/mL) M. catarrhalis,Moraxella catarrhalis; [18],25 µg/mL
same,MIC (μg/mL) P. mirabilis,Proteus mirabilis; [19],12.5 µg/mL
same,MIC (μg/mL) P. vulgaris,Proteus vulgaris; [20],50 µg/mL
same,MIC (μg/mL) S. marcescens,Serratia marcescens; [21],12.5 µg/mL
